The target in the test is T1, Nav1.5 (wild type; α-subunit co-transfected with the β1 subunit) (Homo sapiens, UniProt Q14524).
T1 construct: gene SCN5A; full-length alpha subunit transiently co-transfected with beta1 subunit and eGFP (separate cDNAs) in HEK293; with Sodium channel regulatory subunit beta-1
The test is described as follows: whole-cell patch clamp, peak INa block at -20 mV, Hill fit. Type of test: cell-based. From the text: whole-cell patch clamp, peak INa block at -20 mV, Hill fit on Nav1.5 (wild type; α-subunit co-transfected with the β1 subunit)
A general note: Patch clamp records ionic current or voltage across a cell membrane.

The structures appear in SMILES notation. pIC50: −log10 of the molar value.

T1 sequence (Q14524 whole entry): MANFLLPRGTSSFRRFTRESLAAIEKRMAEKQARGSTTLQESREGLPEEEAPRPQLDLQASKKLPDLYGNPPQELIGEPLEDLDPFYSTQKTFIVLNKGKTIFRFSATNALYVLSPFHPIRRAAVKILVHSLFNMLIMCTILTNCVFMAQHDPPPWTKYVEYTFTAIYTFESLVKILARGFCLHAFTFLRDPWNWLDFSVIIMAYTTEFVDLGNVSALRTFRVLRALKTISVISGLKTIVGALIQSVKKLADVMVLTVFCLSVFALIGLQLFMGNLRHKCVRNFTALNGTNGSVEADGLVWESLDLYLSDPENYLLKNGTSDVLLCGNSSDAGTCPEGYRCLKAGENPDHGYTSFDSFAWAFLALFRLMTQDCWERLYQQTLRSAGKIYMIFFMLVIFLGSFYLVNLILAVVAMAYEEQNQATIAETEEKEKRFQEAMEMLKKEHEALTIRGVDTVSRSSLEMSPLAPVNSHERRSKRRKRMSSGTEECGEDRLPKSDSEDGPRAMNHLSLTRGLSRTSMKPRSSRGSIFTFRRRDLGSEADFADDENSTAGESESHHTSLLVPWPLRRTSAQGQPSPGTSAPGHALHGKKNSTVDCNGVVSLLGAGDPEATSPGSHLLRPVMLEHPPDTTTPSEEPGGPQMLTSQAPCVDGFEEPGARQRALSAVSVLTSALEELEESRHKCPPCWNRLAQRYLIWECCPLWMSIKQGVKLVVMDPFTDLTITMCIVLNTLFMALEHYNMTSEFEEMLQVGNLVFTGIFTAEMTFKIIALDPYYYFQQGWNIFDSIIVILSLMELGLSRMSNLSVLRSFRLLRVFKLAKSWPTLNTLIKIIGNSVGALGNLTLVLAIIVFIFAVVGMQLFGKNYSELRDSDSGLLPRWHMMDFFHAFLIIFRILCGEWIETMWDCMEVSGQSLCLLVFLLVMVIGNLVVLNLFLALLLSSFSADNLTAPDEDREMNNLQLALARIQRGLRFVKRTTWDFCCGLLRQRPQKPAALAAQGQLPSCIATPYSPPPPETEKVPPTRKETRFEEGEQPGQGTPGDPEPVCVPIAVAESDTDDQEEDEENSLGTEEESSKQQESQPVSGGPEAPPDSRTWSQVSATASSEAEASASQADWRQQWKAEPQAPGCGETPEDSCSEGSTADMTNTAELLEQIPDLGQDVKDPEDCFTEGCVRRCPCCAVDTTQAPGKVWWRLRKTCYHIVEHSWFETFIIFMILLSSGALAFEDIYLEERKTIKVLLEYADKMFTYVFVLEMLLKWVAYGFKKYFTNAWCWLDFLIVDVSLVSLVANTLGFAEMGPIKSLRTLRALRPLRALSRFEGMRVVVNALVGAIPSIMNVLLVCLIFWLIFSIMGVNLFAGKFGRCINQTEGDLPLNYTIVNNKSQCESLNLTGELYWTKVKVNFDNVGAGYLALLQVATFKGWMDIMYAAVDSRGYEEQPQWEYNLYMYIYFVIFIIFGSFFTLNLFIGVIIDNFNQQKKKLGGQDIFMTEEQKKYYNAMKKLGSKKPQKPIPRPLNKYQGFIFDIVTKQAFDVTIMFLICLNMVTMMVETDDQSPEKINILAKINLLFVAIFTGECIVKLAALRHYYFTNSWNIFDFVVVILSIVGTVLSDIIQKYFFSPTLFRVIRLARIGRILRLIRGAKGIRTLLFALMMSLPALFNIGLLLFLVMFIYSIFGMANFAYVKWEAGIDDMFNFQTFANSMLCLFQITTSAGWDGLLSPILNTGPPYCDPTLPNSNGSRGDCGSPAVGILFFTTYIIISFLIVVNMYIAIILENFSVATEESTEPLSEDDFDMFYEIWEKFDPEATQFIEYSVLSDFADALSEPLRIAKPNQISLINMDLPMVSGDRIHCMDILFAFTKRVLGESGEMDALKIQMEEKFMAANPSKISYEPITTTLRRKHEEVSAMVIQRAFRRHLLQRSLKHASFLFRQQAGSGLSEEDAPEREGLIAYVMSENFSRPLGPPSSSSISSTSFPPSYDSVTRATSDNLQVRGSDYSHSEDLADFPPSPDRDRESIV
T1 sequence (Q07699 19-218 partner): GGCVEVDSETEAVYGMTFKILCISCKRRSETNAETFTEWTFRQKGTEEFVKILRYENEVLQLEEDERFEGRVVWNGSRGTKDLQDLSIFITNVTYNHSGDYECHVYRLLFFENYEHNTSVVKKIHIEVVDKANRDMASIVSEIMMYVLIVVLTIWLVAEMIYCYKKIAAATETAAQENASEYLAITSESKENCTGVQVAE

With `O=C(NCc1ccco1)c1ccc2[nH]c(=O)c(=O)[nH]c2c1` [AR-051, N-(2-furylmethyl)-2,3-dioxo-quinoxaline-6-carboxamide], the pIC50 (as a rule, −log10 of the IC50, conventionally taken in molar units) was 5.12.

`CN(C)[C@@H](CNC(=O)c1ccc2[nH]c(=O)c(=O)[nH]c2c1)c1ccco1` [AR-189, N-[(2S)-2-(dimethylamino)-2-(2-furyl)ethyl]-2,3-dioxo-quinoxaline-6-carboxamide] gave a pIC50 of 4.90.

The compound `C=CCNS(=O)(=O)c1ccc2[nH]c(=O)[nH]c2c1` [AR-674, N-allyl-2-oxo-benzimidazole-5-sulfonamide] gave a pIC50 of 5.19.

Turning to `COc1cccc(NS(=O)(=O)c2ccc3[nH]c(=O)[nH]c3c2)c1` [AR-802, N-(3-methoxyphenyl)-2-oxo-benzimidazole-5-sulfonamide], the pIC50 was 4.46.

As to `CCc1ccccc1NS(=O)(=O)c1ccc2[nH]c(=O)[nH]c2c1` [AR-807, N-(2-ethylphenyl)-2-oxo-benzimidazole-5-sulfonamide], the pIC50 is 5.01. This pIC50 is 0.55 log units higher than that of the compound before.

For the origin of these results see publication PMC9554508, “ARumenamides: A novel class of potential antiarrhythmic compounds” (Frontiers in Pharmacology, 2022).
